Assay results published in the kinase profiling compilation of Christmann-Franck et al. (2016).

Tests used:
Assay in all cases: KINOMEscan competition binding
Details in all cases: compound 10.0 µM
CDK14 (human) = CDK14 (human) (UniProt O94921)
MELK (human) = MELK (human) (UniProt Q14680)
MAPK1 (human) = MAPK1 (human) (UniProt P28482)
SRC (human) = SRC (human) (UniProt P12931)
[1] = test system: RET (human), P07949 [V804L]
GSK3A (human) = GSK3A (human) (UniProt P49840)
DMPK (human) = DMPK (human) (UniProt Q09013)
CSNK1E (human) = CSNK1E (human) (UniProt P49674)
RAF1 (human) = RAF1 (human) (UniProt P04049)
WEE2 (human) = WEE2 (human) (UniProt P0C1S8)
EPHB1 (human) = EPHB1 (human) (UniProt P54762)
RIPK4 (human) = RIPK4 (human) (UniProt P57078)
CDC2L2 (human) = CDC2L2 (human) (UniProt Q9UQ88)
STK24 (human) = STK24 (human) (UniProt Q9Y6E0)
PKMYT1 (human) = PKMYT1 (human) (UniProt Q99640)
MYLK3 (human) = MYLK3 (human) (UniProt Q32MK0)
ACVR2A (human) = ACVR2A (human) (UniProt P27037)
ULK2 (human) = ULK2 (human) (UniProt Q8IYT8)
STK25 (human) = STK25 (human) (UniProt O00506)
AKT1 (human) = AKT1 (human) (UniProt P31749)
MAP4K5 (human) = MAP4K5 (human) (UniProt Q9Y4K4)
CAMK2A (human) = CAMK2A (human) (UniProt Q9UQM7)
PAK3 (human) = PAK3 (human) (UniProt O75914)
Sequence of PAK3 (human) (O75914 whole entry, looked up): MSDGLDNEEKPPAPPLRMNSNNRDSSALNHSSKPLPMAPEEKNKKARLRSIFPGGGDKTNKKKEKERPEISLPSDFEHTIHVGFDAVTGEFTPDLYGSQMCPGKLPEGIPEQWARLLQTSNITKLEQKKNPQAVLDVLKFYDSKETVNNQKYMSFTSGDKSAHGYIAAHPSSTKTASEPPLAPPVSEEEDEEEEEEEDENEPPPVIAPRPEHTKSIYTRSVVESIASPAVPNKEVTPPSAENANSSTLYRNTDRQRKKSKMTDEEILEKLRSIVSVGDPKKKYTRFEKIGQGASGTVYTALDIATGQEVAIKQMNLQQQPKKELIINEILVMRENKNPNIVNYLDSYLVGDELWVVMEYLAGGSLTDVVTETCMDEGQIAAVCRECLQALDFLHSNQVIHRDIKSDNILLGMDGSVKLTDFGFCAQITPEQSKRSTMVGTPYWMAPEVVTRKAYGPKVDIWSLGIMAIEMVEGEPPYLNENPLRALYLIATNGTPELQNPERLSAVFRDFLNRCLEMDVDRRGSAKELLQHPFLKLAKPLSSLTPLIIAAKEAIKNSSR

STK11 (human) = STK11 (human) (UniProt Q15831)
AKT3 (human) = AKT3 (human) (UniProt Q9Y243)
ERBB4 (human) = ERBB4 (human) (UniProt Q15303)
MAP2K6 (human) = MAP2K6 (human) (UniProt P52564)
EPHB4 (human) = EPHB4 (human) (UniProt P54760)
Sequence of EPHB4 (human) (P54760 whole entry, looked up): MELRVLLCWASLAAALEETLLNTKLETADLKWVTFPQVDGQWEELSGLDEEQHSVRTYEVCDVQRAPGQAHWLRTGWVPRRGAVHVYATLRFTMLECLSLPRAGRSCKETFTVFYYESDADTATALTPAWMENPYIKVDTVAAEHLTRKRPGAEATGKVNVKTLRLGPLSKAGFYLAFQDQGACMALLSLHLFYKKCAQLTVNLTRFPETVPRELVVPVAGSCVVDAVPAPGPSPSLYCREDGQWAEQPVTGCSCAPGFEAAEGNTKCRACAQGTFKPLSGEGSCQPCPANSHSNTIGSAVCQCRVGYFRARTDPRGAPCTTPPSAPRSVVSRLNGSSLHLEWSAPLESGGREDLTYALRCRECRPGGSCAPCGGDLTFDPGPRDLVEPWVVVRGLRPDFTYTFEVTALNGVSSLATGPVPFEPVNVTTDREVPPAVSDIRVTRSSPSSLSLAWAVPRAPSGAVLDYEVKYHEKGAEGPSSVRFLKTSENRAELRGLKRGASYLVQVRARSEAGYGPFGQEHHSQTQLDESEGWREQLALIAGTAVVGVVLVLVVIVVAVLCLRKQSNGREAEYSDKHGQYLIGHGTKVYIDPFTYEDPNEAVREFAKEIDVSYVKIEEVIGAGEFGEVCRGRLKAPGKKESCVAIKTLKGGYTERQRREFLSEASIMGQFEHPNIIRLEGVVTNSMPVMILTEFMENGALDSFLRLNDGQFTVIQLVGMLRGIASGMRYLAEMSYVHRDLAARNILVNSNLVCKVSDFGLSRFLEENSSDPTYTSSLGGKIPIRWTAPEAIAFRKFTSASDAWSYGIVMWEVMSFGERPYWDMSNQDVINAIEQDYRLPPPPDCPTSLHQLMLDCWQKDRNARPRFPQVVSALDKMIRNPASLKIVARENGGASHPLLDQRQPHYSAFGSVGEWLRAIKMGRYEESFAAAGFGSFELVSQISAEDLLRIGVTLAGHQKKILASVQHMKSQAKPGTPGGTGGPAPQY

PAK1 (human) = PAK1 (human) (UniProt Q13153)
AXL (human) = AXL (human) (UniProt P30530)
DYRK1B (human) = DYRK1B (human) (UniProt Q9Y463)
CLK3 (human) = CLK3 (human) (UniProt P49761)
SRPK3 (human) = SRPK3 (human) (UniProt Q9UPE1)
ABL2 (human) = ABL2 (human) (UniProt P42684)
BMPR1B (human) = BMPR1B (human) (UniProt O00238)
Sequence of BMPR1B (human) (O00238 whole entry, looked up): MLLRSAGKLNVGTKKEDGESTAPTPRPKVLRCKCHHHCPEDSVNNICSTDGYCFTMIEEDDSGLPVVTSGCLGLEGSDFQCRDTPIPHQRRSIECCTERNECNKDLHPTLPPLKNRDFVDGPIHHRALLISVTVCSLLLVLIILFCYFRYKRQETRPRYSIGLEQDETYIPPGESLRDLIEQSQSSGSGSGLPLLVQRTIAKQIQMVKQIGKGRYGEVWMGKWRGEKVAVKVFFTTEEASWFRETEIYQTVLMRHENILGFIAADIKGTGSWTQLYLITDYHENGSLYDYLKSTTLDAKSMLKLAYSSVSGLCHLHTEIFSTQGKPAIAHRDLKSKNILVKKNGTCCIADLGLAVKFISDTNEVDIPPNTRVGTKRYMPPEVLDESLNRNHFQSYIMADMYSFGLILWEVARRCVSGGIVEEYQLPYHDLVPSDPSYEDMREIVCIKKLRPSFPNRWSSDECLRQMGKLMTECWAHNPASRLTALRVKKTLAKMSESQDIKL

TNIK (human) = TNIK (human) (UniProt Q9UKE5)
Sequence of TNIK (human) (Q9UKE5 whole entry, looked up): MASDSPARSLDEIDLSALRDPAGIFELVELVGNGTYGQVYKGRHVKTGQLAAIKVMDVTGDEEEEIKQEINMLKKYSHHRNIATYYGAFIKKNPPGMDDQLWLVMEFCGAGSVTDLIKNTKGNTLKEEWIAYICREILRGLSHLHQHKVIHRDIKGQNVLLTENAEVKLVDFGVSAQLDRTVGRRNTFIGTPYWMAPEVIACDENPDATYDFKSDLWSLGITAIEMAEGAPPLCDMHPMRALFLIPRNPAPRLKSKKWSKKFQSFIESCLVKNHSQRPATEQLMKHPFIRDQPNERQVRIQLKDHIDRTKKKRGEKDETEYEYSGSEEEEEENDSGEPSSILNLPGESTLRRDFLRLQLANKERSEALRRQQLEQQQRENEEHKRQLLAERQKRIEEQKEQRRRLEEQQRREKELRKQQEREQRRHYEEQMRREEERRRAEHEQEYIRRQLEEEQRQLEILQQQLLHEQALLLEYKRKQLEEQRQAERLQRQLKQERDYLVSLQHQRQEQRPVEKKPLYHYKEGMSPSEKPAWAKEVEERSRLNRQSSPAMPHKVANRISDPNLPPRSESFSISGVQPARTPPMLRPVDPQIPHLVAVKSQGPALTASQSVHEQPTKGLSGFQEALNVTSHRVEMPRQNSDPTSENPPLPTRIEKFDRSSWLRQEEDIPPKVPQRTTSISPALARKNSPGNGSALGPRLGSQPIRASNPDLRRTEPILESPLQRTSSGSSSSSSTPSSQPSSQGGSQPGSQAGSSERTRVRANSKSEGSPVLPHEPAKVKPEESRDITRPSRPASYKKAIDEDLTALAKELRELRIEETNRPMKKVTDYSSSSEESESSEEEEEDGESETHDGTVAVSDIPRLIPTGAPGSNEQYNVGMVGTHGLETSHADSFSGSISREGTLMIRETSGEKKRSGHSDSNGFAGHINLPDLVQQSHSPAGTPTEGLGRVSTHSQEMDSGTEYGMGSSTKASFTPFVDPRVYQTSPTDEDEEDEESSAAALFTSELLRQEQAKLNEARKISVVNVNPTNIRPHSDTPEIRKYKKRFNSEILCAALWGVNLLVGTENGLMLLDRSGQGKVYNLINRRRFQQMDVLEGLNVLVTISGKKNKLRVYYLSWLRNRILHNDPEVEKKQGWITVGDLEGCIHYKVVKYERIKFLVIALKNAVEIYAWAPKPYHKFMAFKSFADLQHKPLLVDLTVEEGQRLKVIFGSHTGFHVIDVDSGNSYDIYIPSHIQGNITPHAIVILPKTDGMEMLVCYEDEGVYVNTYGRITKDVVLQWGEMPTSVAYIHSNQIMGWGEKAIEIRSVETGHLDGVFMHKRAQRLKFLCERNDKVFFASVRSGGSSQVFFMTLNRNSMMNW

FGFR1 (human) = FGFR1 (human) (UniProt P11362)

Sequence of MELK (human) (Q14680 whole entry, looked up): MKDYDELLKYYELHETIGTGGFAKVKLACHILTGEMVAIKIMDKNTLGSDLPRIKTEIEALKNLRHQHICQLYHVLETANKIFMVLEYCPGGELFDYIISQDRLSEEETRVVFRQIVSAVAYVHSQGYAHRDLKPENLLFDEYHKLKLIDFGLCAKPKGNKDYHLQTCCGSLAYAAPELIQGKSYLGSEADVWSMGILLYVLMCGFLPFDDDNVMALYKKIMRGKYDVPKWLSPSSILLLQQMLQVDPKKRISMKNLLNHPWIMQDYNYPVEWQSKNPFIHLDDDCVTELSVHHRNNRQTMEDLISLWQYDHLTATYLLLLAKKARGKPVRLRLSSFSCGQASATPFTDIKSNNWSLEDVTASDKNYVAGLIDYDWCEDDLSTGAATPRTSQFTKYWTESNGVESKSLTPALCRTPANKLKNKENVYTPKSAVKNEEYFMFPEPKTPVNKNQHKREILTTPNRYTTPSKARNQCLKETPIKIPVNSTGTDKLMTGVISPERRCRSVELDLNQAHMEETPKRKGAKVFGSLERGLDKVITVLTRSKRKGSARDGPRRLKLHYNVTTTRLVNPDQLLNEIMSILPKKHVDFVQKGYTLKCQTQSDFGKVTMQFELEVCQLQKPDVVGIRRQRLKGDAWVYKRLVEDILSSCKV
Sequence of CDK14 (human) (O94921 whole entry, looked up): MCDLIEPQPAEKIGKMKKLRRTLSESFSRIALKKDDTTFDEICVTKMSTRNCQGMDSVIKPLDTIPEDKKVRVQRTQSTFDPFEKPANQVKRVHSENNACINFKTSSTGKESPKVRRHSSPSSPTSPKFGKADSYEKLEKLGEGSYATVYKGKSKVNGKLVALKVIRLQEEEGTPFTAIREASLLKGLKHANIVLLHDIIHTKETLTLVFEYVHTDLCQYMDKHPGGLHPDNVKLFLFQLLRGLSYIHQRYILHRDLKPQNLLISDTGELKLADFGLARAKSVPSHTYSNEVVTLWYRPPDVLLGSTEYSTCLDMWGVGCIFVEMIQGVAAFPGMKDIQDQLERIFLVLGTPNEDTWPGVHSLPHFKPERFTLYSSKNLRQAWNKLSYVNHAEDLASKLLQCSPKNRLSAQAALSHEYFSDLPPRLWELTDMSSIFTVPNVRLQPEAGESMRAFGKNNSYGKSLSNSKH
Sequence of SRC (human) (P12931 whole entry, looked up): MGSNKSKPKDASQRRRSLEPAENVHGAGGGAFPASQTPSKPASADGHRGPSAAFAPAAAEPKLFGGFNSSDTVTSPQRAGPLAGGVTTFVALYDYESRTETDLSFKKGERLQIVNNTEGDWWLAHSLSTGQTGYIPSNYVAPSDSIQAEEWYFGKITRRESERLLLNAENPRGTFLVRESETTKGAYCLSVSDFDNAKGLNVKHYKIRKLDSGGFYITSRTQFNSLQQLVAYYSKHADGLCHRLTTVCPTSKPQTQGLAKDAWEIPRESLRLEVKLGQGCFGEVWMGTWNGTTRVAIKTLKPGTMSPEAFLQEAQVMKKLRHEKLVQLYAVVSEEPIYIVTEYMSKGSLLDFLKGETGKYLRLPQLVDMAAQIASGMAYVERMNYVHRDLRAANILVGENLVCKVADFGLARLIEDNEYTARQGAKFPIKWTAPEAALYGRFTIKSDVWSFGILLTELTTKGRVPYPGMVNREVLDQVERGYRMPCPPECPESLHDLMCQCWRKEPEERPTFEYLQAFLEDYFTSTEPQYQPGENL

SMILES	kinase still bound, per cent of control (CDK14 (human))	kinase still bound, per cent of control (MELK (human))	kinase still bound, per cent of control (MAPK1 (human))	kinase still bound, per cent of control (SRC (human))	kinase still bound, per cent of control (GSK3A (human))	kinase still bound, per cent of control (DMPK (human))	kinase still bound, per cent of control (CSNK1E (human))	kinase still bound, per cent of control (RAF1 (human))	kinase still bound, per cent of control (EPHB1 (human))	kinase still bound, per cent of control (CDC2L2 (human))	kinase still bound, per cent of control (STK24 (human))	kinase still bound, per cent of control (PKMYT1 (human))	kinase still bound, per cent of control (MYLK3 (human))	kinase still bound, per cent of control (ACVR2A (human))	kinase still bound, per cent of control (STK25 (human))	kinase still bound, per cent of control (AKT1 (human))	kinase still bound, per cent of control (MAP4K5 (human))	kinase still bound, per cent of control (CAMK2A (human))	kinase still bound, per cent of control (PAK3 (human))	kinase still bound, per cent of control (STK11 (human))	also measured
COc1cc(N2CCC(C(N)=O)CC2)ccc1Nc1nc(N)c(Cl)c(Nc2ccccc2S(=O)(=O)C(C)C)n1	100%	100%	26%	23%	100%	100%	34%	100%	100%	100%	100%	100%	100%	100%	100%	100%	100%	32%	100%	100%	kinase still bound, per cent of control [1]: 100%; kinase still bound, per cent of control (WEE2 (human)): 100%; kinase still bound, per cent of control (RIPK4 (human)): 100%; kinase still bound, per cent of control (ULK2 (human)): 100%; kinase still bound, per cent of control (AKT3 (human)): 100%; kinase still bound, per cent of control (ERBB4 (human)): 0.55%; kinase still bound, per cent of control (MAP2K6 (human)): 100%; kinase still bound, per cent of control (EPHB4 (human)): 100%; kinase still bound, per cent of control (PAK1 (human)): 100%; kinase still bound, per cent of control (AXL (human)): 8.6%; kinase still bound, per cent of control (DYRK1B (human)): 100%; kinase still bound, per cent of control (CLK3 (human)): 8.3%; kinase still bound, per cent of control (SRPK3 (human)): 100%; kinase still bound, per cent of control (ABL2 (human)): 100%; kinase still bound, per cent of control (BMPR1B (human)): 100%; kinase still bound, per cent of control (TNIK (human)): 100%; kinase still bound, per cent of control (FGFR1 (human)): 100%
COc1ccc(N(C(=O)Oc2cc(C(=O)Nc3cccc(C(F)(F)F)c3)ccc2C)c2ccnc(Nc3ccc(N4CCN(C)CC4)cc3)n2)c(OC)c1	100%	100%	100%	0.15%	100%	100%	100%	23%	0.15%	8%	100%	100%	100%	100%	100%	100%	1.6%	100%	11%	100%	kinase still bound, per cent of control (AKT3 (human)): 100%; kinase still bound, per cent of control (ERBB4 (human)): 9.8%; kinase still bound, per cent of control (MAP2K6 (human)): 100%; kinase still bound, per cent of control (EPHB4 (human)): 0.3%; kinase still bound, per cent of control (PAK1 (human)): 100%; kinase still bound, per cent of control (AXL (human)): 100%; kinase still bound, per cent of control (DYRK1B (human)): 100%; kinase still bound, per cent of control (CLK3 (human)): 100%; kinase still bound, per cent of control (ABL2 (human)): 0.35%; kinase still bound, per cent of control (BMPR1B (human)): 100%; kinase still bound, per cent of control (TNIK (human)): 12%; kinase still bound, per cent of control (FGFR1 (human)): 0.6%
COc1cc(C)c(Sc2cnc(NC(=O)c3ccc(CNC(C)C(C)C)cc3)s2)cc1C(=O)N1CCN(C(C)=O)CC1 (stereo unspecified)	100%	100%	100%	1.2%	100%	100%	100%	100%	24%	100%	33%	100%	100%	100%	100%	100%	100%	100%	100%	100%	kinase still bound, per cent of control [1]: 100%; kinase still bound, per cent of control (WEE2 (human)): 3.6%; kinase still bound, per cent of control (RIPK4 (human)): 100%; kinase still bound, per cent of control (ULK2 (human)): 24%; kinase still bound, per cent of control (AKT3 (human)): 100%; kinase still bound, per cent of control (ERBB4 (human)): 100%; kinase still bound, per cent of control (MAP2K6 (human)): 100%; kinase still bound, per cent of control (EPHB4 (human)): 100%; kinase still bound, per cent of control (PAK1 (human)): 100%; kinase still bound, per cent of control (AXL (human)): 4%; kinase still bound, per cent of control (DYRK1B (human)): 100%; kinase still bound, per cent of control (CLK3 (human)): 19%; kinase still bound, per cent of control (SRPK3 (human)): 100%; kinase still bound, per cent of control (ABL2 (human)): 100%; kinase still bound, per cent of control (BMPR1B (human)): 100%; kinase still bound, per cent of control (TNIK (human)): 100%; kinase still bound, per cent of control (FGFR1 (human)): 100%
